Source: patent US9822170B2, “Co-use of a clusterin inhibitor with an EGFR inhibitor to treat cancer” (ALETHIA BIOTHERAPEUTICS INC., priority 2012, dated 2017)

Key:
H460 cells = assay: CellTiter-Glo Luminescent Cell Viability Assay; type: cell-based, human; conditions: sCLU 0.25 μg/ml or TGFβ 2 nM for 48 h, then erlotinib 20 μM for 96 h
Method: (§1) Following this induction, the cells were treated with erlotinib (20 μM) for 96 h and the number of cells was determined using the CellTiter-Glo® Luminescent Cell Viability Assay (Promega, Madison, Wis.). As a control, additional cells were not induced with sCLU or TGFβ. […] We also compared the response to erlotinib in cells that were induced to undergo an EMT with either sCLU or TGFβ.

H1299 cells = assay: CellTiter-Glo Luminescent Cell Viability Assay; type: cell-based, human
Method: as §1

cancer cells = conditions: incubated with cancer cells; WO2007/030930, WO2011/063523; cited from earlier work

| Molecule | responsiveness to erlotinib after stimulation of EMT (H460 cells) | responsiveness to erlotinib after stimulation of EMT (H1299 cells; H1299 cells, sCLU 0.25 μg/ml or TGFβ 2 nM for 48 h, then erlotinib 20 μM for 96 h) | sensitivity of the cells to erlotinib (H1299 cells; H1299 compared with H460 cells, erlotinib 20 μM for 96 h) | blocking of EMT (maintenance of membrane E-cadherin expression) (cancer cells) |
| --- | --- | --- | --- | --- |
| C#Cc1cccc(Nc2ncnc3cc(OCCOC)c(OCCOC)cc23)c1 [erlotinib] | did not change the responsiveness | did not change the responsiveness | H1299 cells were more sensitive to erlotinib than the H460 cells |  |
| 16B5: murine anti-clusterin (sCLU) antibody that blocks EMT; VL SEQ ID NO.:25, VH SEQ ID NO.:29 (antibody, V domains shown, murine 16B5 heavy chain variable region; murine 16B5 light chain variable region) VH: EVQLQQSGAELVKPGASVRLSCTTSGFNIKDIYMHWVKQRPEQGLEWIGRIDPAYGNTKYDPKFQGKATITADTSSNTAYLQLSSLTSEDTAVYYCARRYDTAMDYWGQGTSVTVSS VL: DIVMSQSPSSLAVSAGEKVTMSCKSSQSLLNSRTRKNYLAWYQQKPGQSPKLLIYWASTRESGVPDRFTGSGSGTDFTLTISSVQAEDLAVYYCKQSYNLWTFGGGTKLEFK |  |  |  | could block EMT |
